The record followed here is ChEMBL document CHEMBL4476864, “Azapeptides as cd36 binding compounds” (2013).

Assay [1] concerns Aorta. Briefly: Inhibition of vascular sprouting in CD36+/+ C57BL/6 mouse aortic rings exposed on day 4 to 6. It is filed as functional, tissue-based.
In assay [2] the test system is Aorta. Briefly: Inhibition of vascular sprouting in CD36-/- C57BL/6 mouse aortic rings exposed on day 4 to 6. It counts as functional, tissue-based.
For assay [3], the system named is Mus musculus. Briefly: Inhibition of choroidal neovascularization in CD36+/+ C57BL/6 mouse model of FITC-conjugated dextran infusion following laser-induced posterior retinal injury administered in to vitreous tissue. It is filed as functional.
For assay [4], the system named is Mus musculus. Briefly: Inhibition of choroidal neovascularization in CD36-/- C57BL/6 mouse model of FITC-conjugated dextran infusion following laser-induced posterior retinal injury administered in to vitreous tissue. It counts as functional, organism-based.

Structures are written as SMILES. The source made the active and inactive calls. The calls are words filed in the database; no cut-off is given here. Starred links: 1 amine or outer side, 2 acyl side, 3 side chain; linkers in the order of their positions; H or OH if unused. Non-standard residues stand in square brackets, D forms with d. Residues, ends and D or L forms follow the SMILES beside them. azaTyr = O=C(N(Cc1ccc(O)cc1)N[*:1])[*:2] Where only a bound is given, the exact number is not on record here.

For `C[C@H](NC(=O)[C@@H](Cc1c[nH]c2ccccc12)NC(=O)[C@@H](N)Cc1cnc[nH]1)C(=O)NN(Cc1ccc(O)cc1)C(=O)N[C@H](Cc1ccccc1)C(=O)N[C@@H](CCCCN)C(N)=O` (H-H[dW]A[azaTyr][dF]K-NH2), in the assay on Aorta [1], the inhibition result was “Dose-dependent effect”. Further, the inhibition result with Aorta [2] and with Mus musculus [4] was “inactive” in each case. Besides, the “inhibition (INH)” value in the assay on Mus musculus [3] was above 50%.
